Experimental data published in PMC7355430, “Imunofan—RDKVYR Peptide—Stimulates Skin Cell Proliferation and Promotes Tissue Repair” (Molecules, 2020).
“And” between values parts separate entries of the source, which are not always exact repeats. Identical values can stand only once. Peptide text beside a SMILES is read from it.

How the values were obtained:
bovine albumin = bovine albumin (Bos taurus, UniProt P02769); assay: Affinity test on albumin-Sepharose column; format: binding; conditions: ammonium hydrogen carbonate pH 7.4, 2 h, 25 °C, elution 0.1% TFA, ESI-IT-TOF MS of fractions
Chain of bovine albumin (P02769 25-607): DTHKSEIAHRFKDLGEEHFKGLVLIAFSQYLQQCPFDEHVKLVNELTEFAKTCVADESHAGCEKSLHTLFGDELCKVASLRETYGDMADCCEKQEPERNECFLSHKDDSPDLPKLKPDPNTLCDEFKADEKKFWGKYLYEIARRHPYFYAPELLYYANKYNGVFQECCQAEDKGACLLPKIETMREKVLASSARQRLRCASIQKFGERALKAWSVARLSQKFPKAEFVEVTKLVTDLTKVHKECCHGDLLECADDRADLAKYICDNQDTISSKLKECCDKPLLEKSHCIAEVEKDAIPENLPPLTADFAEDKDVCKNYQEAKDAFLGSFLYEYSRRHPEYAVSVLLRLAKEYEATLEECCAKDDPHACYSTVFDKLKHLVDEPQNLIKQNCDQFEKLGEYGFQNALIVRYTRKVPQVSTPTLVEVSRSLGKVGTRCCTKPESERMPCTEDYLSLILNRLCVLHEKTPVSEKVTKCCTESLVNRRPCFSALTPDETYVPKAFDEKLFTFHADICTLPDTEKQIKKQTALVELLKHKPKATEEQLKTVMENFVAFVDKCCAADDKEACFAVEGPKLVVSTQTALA
Protocol: Immobilization of protein in a microcolumn, and affinity tests, were performed as described previously by Spodzieja et al.. The IM peptide was added onto an albumin-Sepharose column equilibrated in ammonium hydrogen carbonate, pH 7.4, and incubated for 2 h at 25 °C with gentle shaking. After 2 h, the column was washed with 100 mL of ammonium hydrogen carbonate, collecting the first and last milliliter of the solution (supernatant and last wash fraction). The albumin-peptide complex was dissociated by incubation for 15 min in 0.1% TFA, with gentle shaking. The procedure was repeated twice, and the elution fraction was collected each time. All fractions were lyophilized and analyzed by mass spectrometry (ESI-IT-TOF, Kyoto, Shimadzu Japan).

HaCaT keratinocytes = assay: XTT proliferation assay; format: cell-based, human
Protocol: (§1) XTT assay, which is widely used in the measurement of the effect of bioactive compounds (e.g., cytokines, growth factors, and peptides) on cell proliferation was used for the evaluation of IM effect on skin cells and ASCs proliferation. Cells were seeded at a density of 5000 cells per well into 96-well plates (BD, cat.no. 353872), in a medium supplemented with 10% of FBS, which after 24 h was exchanged for a serum-free DMEM medium containing appropriate concentrations of the IM peptide. IM solutions used in the experiments were prepared with double distilled water under sterile conditions. The cells were incubated with the peptide for 48 h or 72 h, then XTT reagent was added and the plates were incubated at 37 °C for 4 h in the presence of 5% CO2, following manufacturer’s instructions (Sigma-Aldrich, St. Louis, MO, USA). Plates were then read using a standard plate reader at OD 490 nm. Cell proliferation was normalized with respect to an untreated control (100%).

46BR.1N fibroblasts = assay: XTT proliferation assay; format: cell-based, human; conditions: 48 h, 0.1–100 µg/mL, serum-free DMEM, n=16
Protocol: as §1

ASCs = assay: XTT proliferation assay; format: cell-based, human; conditions: 48 h, 1.0 and 10 µg/mL, serum-free DMEM, n=16
Protocol: as §1

C57BL/6 mice = assay: Ear pinna injury, ear punch closure; format: in vivo, mouse
Protocol: Experiments were performed on 8–12 week-old female BALB/c (24 mice in total) and C57BL/6 mice (36 mice in total). All mice originated from the Centre for Experimental Medicine of the Medical University of Białystok, Poland, and were kept in the animal facility at the Nencki Institute of Experimental Biology throughout the course of the study. After delivery to the Nencki Institute animal facility, mice rested for at least two weeks for acclimatization before starting the experiment. Experiments were approved by the First Local Ethics Committee in Warsaw (permit No. 491/2013 and 542/2018). Animal experimentation was performed in accordance with EU directive 2010/63/EU, and all experiments were undertaken in such a way as to minimize discomfort and the number of animals used in the study.
Mice were placed individually in separate cages, weighed, and randomly divided into two groups within each mouse strain: The treatment group and the control group. Before the study all mice were randomly given numerical equivalents, and all experimenters performing further analysis were not aware of the experimental group and referred solely to those numbers. Similarly, vials containing IM (treatment) or saline (control) were encrypted and assigned to particular mice, so the person performing injections and ear photographs was not aware of mice background. Lastly, the person quantifying each ear hole closure was not aware of the group. Numerical equivalents of each mice were only decrypted at the end of the study. […]
To monitor the progress of wound healing, ears were photographed on the day of the injury (day 0, before and right after pinna injury), and on days 7, 14, 21, 28, 35, and 42. […] Finally, the area of the wound hole was outlined by hand on digitized images as an overlay, and the hole areas in the ears were evaluated using computer-assisted image analysis (ImageJ Software). […] The final number of analyzed ears was 23 per group on day 42. […] The final number of analyzed ears on day 42 was 32 in the control group and 16 in the treatment group.

CC(C)[C@H](NC(=O)[C@H](CCCCN)NC(=O)[C@H](CC(=O)O)NC(=O)[C@@H](N)CCCNC(=N)N)C(=O)N[C@@H](Cc1ccc(O)cc1)C(=O)N[C@@H](CCCNC(=N)N)C(=O)O [IM, H-Arg-Asp-Lys-Val-Tyr-Arg-OH] (H-RDKVYR-OH)
interaction with albumin (bovine albumin): interacted with bovine albumin | increase in cell proliferation (HaCaT keratinocytes; 48 h, 0.1 and 1 µg/mL, serum-free DMEM, XTT, n=16): 20–50% | increase in proliferation of keratinocytes (abstract) (HaCaT keratinocytes; as summarised in the abstract, p < 0.05): 20–50% | increase in proliferation compared to the control (46BR.1N fibroblasts): 20–40% | increase in proliferation (ASCs): 10% | mean ear hole area (C57BL/6 mice; C57BL/6, day 42 post-injury, 2 mm punch, s.c. 5.0 µg/g, 10 injections, mean ± SD, saline control 3.10 ± 0.74): 1.67 ± 0.45 mm^2 | ear hole closure (C57BL/6 mice; C57BL/6, day 42 post-injury, s.c. 5.0 µg/g, 10 injections, mean ± SD, saline control 8.0% ± 36.8%): 43.6% ± 13.9% and 44% | tissue repair in comparison to control (C57BL/6 mice; C57BL/6, ear pinna injury, as summarised in the abstract): 36%
